Columns and labels:
androgen receptor = molecular target: T1, androgen receptor (Homo sapiens, UniProt P10275); test: binding to the androgen receptor relative to R 1881; conditions: R 1881=100%
T1 sequence (P10275 1-920): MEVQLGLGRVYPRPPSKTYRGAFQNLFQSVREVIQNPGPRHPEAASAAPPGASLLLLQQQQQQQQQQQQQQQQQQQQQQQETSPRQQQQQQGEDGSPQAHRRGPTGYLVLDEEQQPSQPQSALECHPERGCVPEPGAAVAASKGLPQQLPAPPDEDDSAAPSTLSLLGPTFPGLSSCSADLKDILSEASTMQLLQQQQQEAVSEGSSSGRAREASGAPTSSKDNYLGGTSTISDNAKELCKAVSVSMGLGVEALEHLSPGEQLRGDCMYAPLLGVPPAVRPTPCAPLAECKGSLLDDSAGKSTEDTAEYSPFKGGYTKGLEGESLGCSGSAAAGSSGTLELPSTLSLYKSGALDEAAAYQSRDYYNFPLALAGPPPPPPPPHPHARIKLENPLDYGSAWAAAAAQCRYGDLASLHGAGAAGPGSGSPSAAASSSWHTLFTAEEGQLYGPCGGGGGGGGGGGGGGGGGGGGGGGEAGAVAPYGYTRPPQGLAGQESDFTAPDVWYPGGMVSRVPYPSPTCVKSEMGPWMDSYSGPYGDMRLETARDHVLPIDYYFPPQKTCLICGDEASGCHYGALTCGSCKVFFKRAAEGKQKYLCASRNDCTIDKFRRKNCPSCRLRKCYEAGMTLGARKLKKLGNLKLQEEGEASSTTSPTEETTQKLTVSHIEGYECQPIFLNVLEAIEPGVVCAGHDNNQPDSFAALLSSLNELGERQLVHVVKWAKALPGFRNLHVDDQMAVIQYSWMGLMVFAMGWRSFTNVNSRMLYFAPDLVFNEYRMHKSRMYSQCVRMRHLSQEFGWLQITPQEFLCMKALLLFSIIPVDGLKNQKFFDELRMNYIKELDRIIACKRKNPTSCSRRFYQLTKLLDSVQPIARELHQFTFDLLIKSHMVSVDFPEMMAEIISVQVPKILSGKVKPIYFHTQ

progesterone receptor = molecular target: T2, progesterone receptor (Homo sapiens, UniProt P06401); test: binding to the progesterone receptor relative to progesterone; conditions: progesterone=100%
T2 sequence (P06401 1-933): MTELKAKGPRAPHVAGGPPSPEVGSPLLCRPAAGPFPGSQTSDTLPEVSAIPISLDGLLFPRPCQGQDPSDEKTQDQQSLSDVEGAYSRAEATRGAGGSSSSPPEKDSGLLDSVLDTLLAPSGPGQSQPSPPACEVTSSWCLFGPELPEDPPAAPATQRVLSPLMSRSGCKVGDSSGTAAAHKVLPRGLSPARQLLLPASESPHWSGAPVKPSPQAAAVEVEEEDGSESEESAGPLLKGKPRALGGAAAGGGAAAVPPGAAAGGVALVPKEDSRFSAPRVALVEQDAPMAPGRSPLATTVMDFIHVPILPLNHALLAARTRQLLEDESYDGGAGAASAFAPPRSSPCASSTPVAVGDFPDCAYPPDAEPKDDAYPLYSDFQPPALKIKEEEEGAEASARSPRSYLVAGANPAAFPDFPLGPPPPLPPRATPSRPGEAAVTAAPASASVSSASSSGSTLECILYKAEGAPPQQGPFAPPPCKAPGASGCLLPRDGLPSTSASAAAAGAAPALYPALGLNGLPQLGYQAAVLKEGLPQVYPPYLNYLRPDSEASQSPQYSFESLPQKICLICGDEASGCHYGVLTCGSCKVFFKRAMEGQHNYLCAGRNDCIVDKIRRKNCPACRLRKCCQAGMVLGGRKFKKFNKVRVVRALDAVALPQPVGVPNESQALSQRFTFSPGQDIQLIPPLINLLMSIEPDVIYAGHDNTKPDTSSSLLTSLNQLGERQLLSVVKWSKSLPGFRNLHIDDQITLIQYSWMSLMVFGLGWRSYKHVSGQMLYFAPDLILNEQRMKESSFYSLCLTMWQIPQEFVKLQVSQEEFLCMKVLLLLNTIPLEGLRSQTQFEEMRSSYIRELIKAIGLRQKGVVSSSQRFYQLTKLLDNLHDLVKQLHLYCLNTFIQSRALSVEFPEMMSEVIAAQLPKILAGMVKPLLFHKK

| SMILES | binds to the extent of % to the androgen receptor (androgen receptor) | binds to the extent of % to the progesterone receptor (progesterone receptor) |
| --- | --- | --- |
| C[C@]12CC[C@H]3[C@@H](CCC4=C(Cl)C(=O)CC[C@@H]43)[C@@]13C[C@H]3C[C@@H]2O [4-Chloro-17β-hydroxy-14α,15α-methylene-estr-4-ene-3-one] | 98% | 5.5% |
| C[C@]12C=CC3=C4CCC(=O)C=C4CC[C@H]3[C@@]13C[C@H]3C[C@@H]2O [17β-Hydroxy-14α,15α-methylene-estr-4,9,11-triene-3-one] | 58% | 36% |
